# pIC50: −log10 of the molar value.
# Test system: 997537-175-T-J1-PDC complex spheroid viability
# Test: Anticancer human tumor 997537-175-T-J1-PDC patient-derived colon adenocarcinoma cell line growth inhibition [GQUAD]
# Settings: for pIC50: curve of first compound; for viability, T/C: stronger effect = lower value
# How it was run: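 Multi-cell-type spheroids of tumor cells with HUVEC and mesenchymal stem cells, treated with drug combinations. Concentrations descend in half-log steps from near clinical Cmax, or from 10 microM where Cmax is unknown; viability read-out.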
# [1] = second compound 0.0316 µM, first compound 0.0316 µM
# [2] = second compound 0.0316 µM, first compound 0.1 µM
# [3] = second compound 0.0316 µM, first compound 0.316 µM
# [4] = second compound 0.0316 µM, first compound 1 µM
# [5] = second compound 0.0316 µM, first compound 3.16 µM
# [6] = second compound 0.0316 µM, first compound 10 µM
# [7] = second compound 0.1 µM, first compound 0.0316 µM
# [8] = second compound 0.1 µM, first compound 0.1 µM
# [9] = second compound 0.1 µM, first compound 0.316 µM
# [10] = second compound 0.1 µM, first compound 1 µM
# [11] = second compound 0.1 µM, first compound 3.16 µM
# [12] = second compound 0.1 µM, first compound 10 µM
# [13] = second compound 0.316 µM, first compound 0.0316 µM
# [14] = second compound 0.316 µM, first compound 0.1 µM
# [15] = second compound 0.316 µM, first compound 0.316 µM
# [16] = second compound 0.316 µM, first compound 1 µM
# [17] = second compound 0.316 µM, first compound 3.16 µM
# [18] = second compound 0.316 µM, first compound 10 µM
# [19] = second compound 1 µM, first compound 0.0316 µM
# [20] = second compound 1 µM, first compound 0.1 µM
# [21] = second compound 1 µM, first compound 0.316 µM
# [22] = second compound 1 µM, first compound 1 µM
# [23] = second compound 1 µM, first compound 3.16 µM
# [24] = second compound 1 µM, first compound 10 µM
# [25] = second compound 3.16 µM, first compound 0.0316 µM
# [26] = second compound 3.16 µM, first compound 0.1 µM
# [27] = second compound 3.16 µM, first compound 0.316 µM
# [28] = second compound 3.16 µM, first compound 1 µM
# [29] = second compound 3.16 µM, first compound 3.16 µM
# [30] = second compound 3.16 µM, first compound 10 µM
# [31] = second compound 10 µM, first compound 0.0316 µM
# [32] = second compound 10 µM, first compound 0.1 µM
# [33] = second compound 10 µM, first compound 0.316 µM
# [34] = second compound 10 µM, first compound 1 µM
# [35] = second compound 10 µM, first compound 3.16 µM
# [36] = second compound 10 µM, first compound 10 µM
# 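Further: spheroids exposed to the agents for 7 days.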
# 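Wherever viability, T/C is given: 100% = DMSO vehicle control viability.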
smiles,measurement,setting,value
Cc1cccc(N(C)C(=O)C2C(O)CCN2c2nc(C)cc(C(F)(F)F)c2C#N)c1 (stereo unspecified) + Cc1[nH]c2ccc(F)cc2c1-c1nc2c3cccnc3c3ncccc3c2[nH]1,pIC50,second compound 0.0316 µM,< 5.00
same,pIC50,second compound 0.1 µM,< 5.00
same,pIC50,second compound 0.316 µM,< 5.00
same,pIC50,second compound 1 µM,< 5.00
same,pIC50,second compound 3.16 µM,< 5.00
same,pIC50,second compound 10 µM,< 5.00
same,"viability, T/C",[1],104%
same,"viability, T/C",[2],82.7%
same,"viability, T/C",[3],107%
same,"viability, T/C",[4],75.4%
same,"viability, T/C",[5],85.6%
same,"viability, T/C",[6],96%
same,"viability, T/C",[7],101%
same,"viability, T/C",[8],97.8%
same,"viability, T/C",[9],96%
same,"viability, T/C",[10],80.1%
same,"viability, T/C",[11],99%
same,"viability, T/C",[12],90.6%
same,"viability, T/C",[13],101%
same,"viability, T/C",[14],74%
same,"viability, T/C",[15],92.8%
same,"viability, T/C",[16],95%
same,"viability, T/C",[17],100%
same,"viability, T/C",[18],106%
same,"viability, T/C",[19],79.4%
same,"viability, T/C",[20],95.3%
same,"viability, T/C",[21],108%
same,"viability, T/C",[22],85.4%
same,"viability, T/C",[23],104%
same,"viability, T/C",[24],92.7%
same,"viability, T/C",[25],57.9%
same,"viability, T/C",[26],89.9%
same,"viability, T/C",[27],76.9%
same,"viability, T/C",[28],79.2%
same,"viability, T/C",[29],69%
same,"viability, T/C",[30],85.6%
same,"viability, T/C",[31],80.5%
same,"viability, T/C",[32],93.8%
same,"viability, T/C",[33],80.6%
same,"viability, T/C",[34],76.8%
same,"viability, T/C",[35],105%
same,"viability, T/C",[36],95.6%
O=C(NO)c1cnc(N2CCN(S(=O)(=O)c3ccc4ccccc4c3)CC2)nc1 + Cc1[nH]c2ccc(F)cc2c1-c1nc2c3cccnc3c3ncccc3c2[nH]1,pIC50,second compound 0.0316 µM,7.05
same,pIC50,second compound 0.1 µM,6.87
same,pIC50,second compound 0.316 µM,7.04
same,pIC50,second compound 1 µM,7.06
same,pIC50,second compound 3.16 µM,7.37
same,pIC50,second compound 10 µM,> 7.50
same,"viability, T/C",[1],93.7%
same,"viability, T/C",[2],45.1%
same,"viability, T/C",[3],19.4%
same,"viability, T/C",[4],35.4%
same,"viability, T/C",[5],39.2%
same,"viability, T/C",[6],21.7%
same,"viability, T/C",[7],73.6%
same,"viability, T/C",[8],56.2%
same,"viability, T/C",[9],31.2%
same,"viability, T/C",[10],32.7%
same,"viability, T/C",[11],20.9%
same,"viability, T/C",[12],42.4%
same,"viability, T/C",[13],78.8%
same,"viability, T/C",[14],43.4%
same,"viability, T/C",[15],52.3%
same,"viability, T/C",[16],31.8%
same,"viability, T/C",[17],42.2%
same,"viability, T/C",[18],34.8%
same,"viability, T/C",[19],74.4%
same,"viability, T/C",[20],44.5%
same,"viability, T/C",[21],37.6%
same,"viability, T/C",[22],29.4%
same,"viability, T/C",[23],23.6%
same,"viability, T/C",[24],26.2%
same,"viability, T/C",[25],55.9%
same,"viability, T/C",[26],33.5%
same,"viability, T/C",[27],30.5%
same,"viability, T/C",[28],24.8%
same,"viability, T/C",[29],25.6%
same,"viability, T/C",[30],19.4%
same,"viability, T/C",[31],45.1%
same,"viability, T/C",[32],16.1%
same,"viability, T/C",[33],10.4%
same,"viability, T/C",[34],19.8%
same,"viability, T/C",[35],16.6%
same,"viability, T/C",[36],18%
CC(=O)O[C@H]1C(=O)[C@@]2(C)[C@H]([C@H](OC(=O)c3ccccc3)[C@]3(O)C[C@H](OC(=O)[C@H](O)[C@@H](NC(=O)c4ccccc4)c4ccccc4)C(C)=C1C3(C)C)[C@]1(OC(C)=O)CO[C@@H]1C[C@@H]2O + Cc1cnc(CNC(=O)c2c(=O)c3ccc(N4CCCN(C)CC4)nc3n3c2sc2ccccc23)cn1,pIC50,second compound 0.0316 µM,7.29
same,pIC50,second compound 0.1 µM,7.02
same,pIC50,second compound 0.316 µM,6.78
same,pIC50,second compound 1 µM,< 5.00
same,pIC50,second compound 3.16 µM,5.28
same,pIC50,second compound 10 µM,< 5.00
same,"viability, T/C",[1],63.1%
same,"viability, T/C",[2],32.2%
same,"viability, T/C",[3],25.2%
same,"viability, T/C",[4],32.1%
same,"viability, T/C",[5],26.9%
same,"viability, T/C",[6],21.2%
same,"viability, T/C",[7],79.2%
same,"viability, T/C",[8],48.2%
same,"viability, T/C",[9],33.7%
same,"viability, T/C",[10],18.4%
same,"viability, T/C",[11],21.3%
same,"viability, T/C",[12],32.4%
same,"viability, T/C",[13],72.4%
same,"viability, T/C",[14],56.4%
same,"viability, T/C",[15],40.7%
same,"viability, T/C",[16],47.4%
same,"viability, T/C",[17],35%
same,"viability, T/C",[18],43.5%
same,"viability, T/C",[19],63%
same,"viability, T/C",[20],72.2%
same,"viability, T/C",[21],43.9%
same,"viability, T/C",[22],60.5%
same,"viability, T/C",[23],73.5%
same,"viability, T/C",[24],47.7%
same,"viability, T/C",[25],68.7%
same,"viability, T/C",[26],72.8%
same,"viability, T/C",[27],62.6%
same,"viability, T/C",[28],66%
same,"viability, T/C",[29],50.9%
same,"viability, T/C",[30],45.2%
same,"viability, T/C",[31],62.4%
same,"viability, T/C",[32],49.4%
same,"viability, T/C",[33],60%
same,"viability, T/C",[34],69.7%
same,"viability, T/C",[35],57%
same,"viability, T/C",[36],60.2%

# From PubChem BioAssay AID2060487 (Molecular Pharmacology Branch, DTP, NCI, 2025)
